In patent publication US9586961B2, “Homopiperazine derivatives as protein tyrosine kinase inhibitors and pharmaceutical use thereof” (LEO PHARMA A/S, priority 2010, dated 2017) one finds EC50 data, which are given here for eleven molecules.

Structures are written as SMILES. pEC50: −log10 of the molar value.

Holding throughout (format): biochemical
One assay concerns the target T1, JAK1 (Homo sapiens, UniProt P23458).
T1 construct: JAK1 (aa 850-1154) and TYK2 (aa 871-1187) are expressed with an N-terminally fused GST-tag; GST (N); purchased Carna Biosciences, Inc; host or cells: baculovirus expression system
Description: JAK1 kinase assay (HTRF, inhibition of phosphorylation of a synthetic peptide). As to conditions: catalytic domain aa 850-1154, GST-tag; 7 μM ATP (Km); read-out: JAK1 kinase inhibitory activity (EC50). Put shortly: (§1)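 HTRF detection (streptavidin-XL665, cryptate anti-phospho antibody, overnight in the dark) after EDTA stop of a 20-30 min RT reaction on 1 μM TK substrate-biotin. Km-level ATP per kinase: 7 μM for JAK1 and 13 μM for TYK2, both N-terminal GST, with 50 nM SEB; 4 μM for JAK2 and 2 μM for JAK3, both His-tagged. Catalytic domains only; DMSO 0.75%.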

In a further assay the target is T2, JAK2 (Homo sapiens, UniProt O60674).
T2 construct: All four purified enzymes contain only the catalytic domain; His (N); purchased Carna Biosciences, Inc; host or cells: baculovirus expression system
T2 sequence (O60674 849-1124 limits assumed): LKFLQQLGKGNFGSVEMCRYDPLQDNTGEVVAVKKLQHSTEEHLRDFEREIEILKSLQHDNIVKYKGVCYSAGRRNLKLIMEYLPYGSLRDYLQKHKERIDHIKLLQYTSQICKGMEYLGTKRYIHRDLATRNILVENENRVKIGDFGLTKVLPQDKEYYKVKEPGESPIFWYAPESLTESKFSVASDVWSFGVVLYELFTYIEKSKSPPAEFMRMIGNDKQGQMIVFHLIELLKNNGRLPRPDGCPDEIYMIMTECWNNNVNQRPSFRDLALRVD
Description: JAK2 kinase assay (HTRF, inhibition of phosphorylation of a synthetic peptide). The conditions noted are these: catalytic domain, His-tag; 4 μM ATP (Km); read-out: JAK2 kinase inhibitory activity (EC50). In a few lines:
as §1
In general terms: In TR-FRET formats the signal depends on donor and acceptor labels being close together.

A further assay addresses T3, JAK3 (Homo sapiens, UniProt P52333).
T3 construct: All four purified enzymes contain only the catalytic domain; His (N); purchased Carna Biosciences, Inc; host or cells: baculovirus expression system
In words: JAK3 kinase assay (HTRF, inhibition of phosphorylation of a synthetic peptide). The conditions noted are these: catalytic domain, His-tag; 2 μM ATP (Km); read-out: JAK3 kinase inhibitory activity (EC50). Put shortly: as §1

Another assay has as its target T4, TYK2 (Homo sapiens, UniProt P29597).
T4 construct: JAK1 (aa 850-1154) and TYK2 (aa 871-1187) are expressed with an N-terminally fused GST-tag; GST (N); purchased Carna Biosciences, Inc; host or cells: baculovirus expression system
T4 sequence (P29597 871-1187): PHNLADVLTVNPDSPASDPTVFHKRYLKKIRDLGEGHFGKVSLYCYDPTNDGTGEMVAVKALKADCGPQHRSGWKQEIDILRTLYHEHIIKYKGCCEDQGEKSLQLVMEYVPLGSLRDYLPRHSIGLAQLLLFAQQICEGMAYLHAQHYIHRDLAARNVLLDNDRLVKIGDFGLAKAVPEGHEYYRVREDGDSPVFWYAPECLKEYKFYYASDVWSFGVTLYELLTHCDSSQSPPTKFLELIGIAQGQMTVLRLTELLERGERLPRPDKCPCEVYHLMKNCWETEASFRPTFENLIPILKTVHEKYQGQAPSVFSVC
In words: TYK2 kinase assay (HTRF, inhibition of phosphorylation of a synthetic peptide). The conditions noted are these: catalytic domain aa 871-1187, GST-tag; 13 μM ATP (Km); read-out: TYK2 kinase inhibitory activity (EC50). In a few lines:
as §1

T3 sequence (P52333 822-1111 limits assumed): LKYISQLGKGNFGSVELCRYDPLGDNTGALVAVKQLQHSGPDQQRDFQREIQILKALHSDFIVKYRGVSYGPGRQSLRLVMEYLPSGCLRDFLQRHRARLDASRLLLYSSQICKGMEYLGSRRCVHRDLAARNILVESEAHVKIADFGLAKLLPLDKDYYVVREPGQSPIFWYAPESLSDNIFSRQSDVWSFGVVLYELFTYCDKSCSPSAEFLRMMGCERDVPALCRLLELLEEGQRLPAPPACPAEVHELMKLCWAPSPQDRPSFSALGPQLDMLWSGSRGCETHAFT
T1 sequence (P23458 850-1154): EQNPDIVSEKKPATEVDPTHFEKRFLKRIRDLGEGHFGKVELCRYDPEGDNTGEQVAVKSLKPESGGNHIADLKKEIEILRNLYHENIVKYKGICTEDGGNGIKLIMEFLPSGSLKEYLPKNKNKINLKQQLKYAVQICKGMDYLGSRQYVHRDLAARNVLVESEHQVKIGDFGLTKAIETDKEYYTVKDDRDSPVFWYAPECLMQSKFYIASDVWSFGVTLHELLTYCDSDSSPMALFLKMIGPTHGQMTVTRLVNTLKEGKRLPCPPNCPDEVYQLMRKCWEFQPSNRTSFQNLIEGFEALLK

As a reminder, the pEC50 is the EC50 on a negative log10 scale, so that one unit is a factor of ten. As for `N#Cc1ccc(C(=O)N2CCN(c3ncnc4[nH]ccc34)CC3(CC3)C2)cc1` [Example 62, 4-[5-(7H-pyrrolo[2,3-d]pyrimidin-4-yl)-5,8-diazaspiro[2.6]nonane-8-carbonyl]benzonitrile], the pEC50 on JAK1 was 6.00 to 7.00; on JAK2 it was 6.00 to 7.00; at JAK3, 6.00 to 7.00; at TYK2 it was less than 6.00.

Consider `CCCCN1CCCN(c2ncnc3[nH]ccc23)CC12CC2` [Example 281, 4-(9-butyl-5,9-diazaspiro[2.6]nonan-5-yl)-7H-pyrrolo[2,3-d]pyrimidine], for which the pEC50 at JAK1 was 6.00 to 7.00; on JAK2, 6.00 to 7.00; on JAK3 it was 6.00 to 7.00; on TYK2, less than 6.00.

For `Cc1ccc(S(=O)(=O)N2CCCN(c3ncnc4[nH]ccc34)CC23CC3)cc1` [Example 94, 4-[9-(p-tolylsulfonyl)-5,9-diazaspiro[2.6]nonan-5-yl]-7H-pyrrolo[2,3-d]pyrimidine], the pEC50 on JAK1, at JAK2, on JAK3 and on TYK2 was less than 6.00 each time.

With `CCCCC(=O)Nc1nc(N2CCCNC3(CC3)C2)c2cc[nH]c2n1` [Example 295], the pEC50 on JAK1, on JAK2, on JAK3 and on TYK2 was less than 6.00 throughout.

`N#Cc1ccc(C(=O)N2CCCN(c3ncnc4[nH]ccc34)CC23CC3)cc1` [Example 56, 4-[5-(7H-pyrrolo[2,3-d]pyrimidin-4-yl)-5,9-diazaspiro[2.6]nonane-9-carbonyl]benzonitrile]: the pEC50 on JAK1 was greater than 7.00; on JAK2 it was greater than 7.00; on JAK3 it was 6.00 to 7.00; at TYK2, less than 6.00.

`N#Cc1cccc(C(=O)N2CCN(c3ncnc4[nH]ccc34)CC3(CC3)C2)c1` [Example 3, 3-[8-(7H-pyrrolo[2,3-d]pyrimidin-4-yl)-5,8-diazaspiro[2.6]nonane-5-carbonyl]benzonitrile]: the pEC50 on JAK1 was 6.00 to 7.00; on JAK2, 6.00 to 7.00; on JAK3 it was less than 6.00; at TYK2 it was less than 6.00.

`NS(=O)(=O)c1ccc(C(=O)N2CCN(c3ncnc4[nH]ccc34)CC3(CC3)C2)o1` [Example 37, 5-[5-(7H-pyrrolo[2,3-d]pyrimidin-4-yl)-5,8-diazaspiro[2.6]nonane-8-carbonyl]furan-2-sulfonamide]: the pEC50 was 6.00 to 7.00 on JAK1, greater than 7.00 on JAK2, 6.00 to 7.00 on JAK3 and less than 6.00 on TYK2.

`N#Cc1ccc(C(F)(F)C(=O)N2CCN(c3ncnc4[nH]ccc34)CC3(CC3)C2)cc1` [Example 13, 4-[1,1-difluoro-2-oxo-2-[5-(7H-pyrrolo[2,3-d]pyrimidin-4-yl)-5,8-diazaspiro[2.6]nonan-8-yl]ethyl]benzonitrile]: the pEC50 at JAK1 was 6.00 to 7.00; on JAK2, greater than 7.00; at JAK3, less than 6.00; at TYK2, less than 6.00.

As for `N#CCCC(=O)N1CCCN(c2ncnc3[nH]ccc23)CC12CC2` [Example 61, 4-oxo-4-[5-(7H-pyrrolo[2,3-d]pyrimidin-4-yl)-5,9-diazaspiro[2.6]nonan-9-yl]butanenitrile], the pEC50 was 6.00 to 7.00 at JAK1, 6.00 to 7.00 on JAK2, 6.00 to 7.00 on JAK3 and less than 6.00 at TYK2.

Consider `CCCCC(=O)Nc1nc(N2CCNCC3(CC3)C2)c2cc[nH]c2n1` [Example 294], for which the pEC50 on JAK1, on JAK2, at JAK3 and at TYK2 was less than 6.00 each time.

`Cc1cc(C(=O)N2CCCN(c3ncnc4[nH]ccc34)CC23CC3)no1` [Example 141]: the pEC50 was greater than 7.00 on JAK1, greater than 7.00 on JAK2, 6.00 to 7.00 at JAK3 and 6.00 to 7.00 on TYK2.
